According to PMC11513893, “Discovery of Oral Degraders of the ROS1 Fusion Protein with Potent Activity against Secondary Resistance Mutations” (Journal of Medicinal Chemistry, 2024):
Where two headings read alike, the source gives them in different places. Blank lines part the entries; values can stand above or below the compound they belong to.

Legend:
[1] = system: Ba/F3 ROS1 (SLC34A2) F2075C-G1837E; test: Antiproliferation assay; format: cell-based; details: Mus musculus, BaF3; Ba/F3 cell line
Experimental: (§1) Ba/F3 immortalized murine bone marrow–derived pro-B cells were obtained from Creative Biogene (Shirley, NY) and cultured in RPMI supplemented with 10% FBS and IL3 (0.5 ng/mL). Ba/F3 cells expressing ROS1 variants were maintained in RPMI supplemented with 10% FBS and puromycin (0.7 mg/mL). Crizotinib, ceritinib, brigatinib, repotrectinib, and lorlatinib were purchased from MedChem Express. Each compound was dissolved in DMSO and serially diluted in RPMI for cell culture experiments.
(§2) To assess the 72 h effect of drug treatment on cell proliferation, 2000 to 3000 cells were plated in replicates of three in 96-well plates. The plates were placed in an incubator at 37 °C, 5% CO2 for 72 h. Following drug treatments, the cells were incubated with the Alamar Blue Assay reagent (BioRad), 5 μL each well for 4 h at 37 °C and 5% CO2. Luminescence was measured on a multiplate reader and analyzed. […] IC50 values were determined using a nonlinear regression model with a sigmoidal dose response in GraphPad. The data were collected based on triplicate experiments, and presented as mean ± SD.

[2] = system: Ba/F3 ROS1 (SLC34A2) G2032R-D2113G; test: Antiproliferation assay; format: cell-based; details: Mus musculus, BaF3; Ba/F3 cell line
Experimental: as §1, §2

[3] = system: Ba/F3 ROS1 (SLC34A2) G2032R-F2075C; test: Antiproliferation assay; format: cell-based; details: Mus musculus, BaF3; Ba/F3 cell line
Experimental: as §1, §2

[4] = system: Ba/F3 ROS1 (SLC34A2) V2098I; test: Antiproliferation assay; format: cell-based; details: Mus musculus, BaF3; Ba/F3 cell line
Experimental: as §1, with “Crizotinib, ceritinib, brigatinib, repotrectinib, and lorlatinib were purchased from MedChem Express.” left out
as §2

Ba/F3 ROS1 (CD74) G2032R = test: Antiproliferation assay; format: cell-based; details: Mus musculus, BaF3; Ba/F3 cell line
Experimental: as §1, §2
(§3) cDNA encoding CD74-ROS1 or mutant CD74–ROS1 was cloned into retroviral expression vectors (pLenti), and viruses were generated in HEK293T cells by transfecting with packaging plasmids. The resulting virus was used to infect Ba/F3 cells. After retroviral infection, Ba/F3 cells were selected by incubation with puromycin (0.7 mg/mL) for 2 weeks. For Ba/F3 cells infected by the CD74–ROS1 variants, IL3 was withdrawn from the culture medium at least 2 weeks before the experiments.

[5] = system: Ba/F3 ROS1 (CD74) S1986F-G2032R-L2086F; test: Antiproliferation assay; format: cell-based; details: Mus musculus, BaF3; Ba/F3 cell line
Experimental: as §1, §2, §3

[6] = system: Ba/F3 ROS1 (CD74) G2032R-L2086F; test: Antiproliferation assay; format: cell-based; details: Mus musculus, BaF3; Ba/F3 cell line
Experimental: as §1, §2, §3

[7] = system: Ba/F3 ROS1 (CD74) S1986F-L2086F; test: Antiproliferation assay; format: cell-based; details: Mus musculus, BaF3; Ba/F3 cell line
Experimental: as §1, §2, §3

[8] = system: Ba/F3 ROS1 (CD74) S1986F-G2032R; test: Antiproliferation assay; format: cell-based; details: Mus musculus, BaF3; Ba/F3 cell line
Experimental: as §1, §2, §3

Ba/F3 ROS1 (CD74) L2086F = test: Antiproliferation assay; format: cell-based; details: Mus musculus, BaF3; Ba/F3 cell line
Experimental: as §1, §2, §3

Ba/F3 ROS1 L2086F = test: Antiproliferation assay; format: cell-based; details: Mus musculus, BaF3; Ba/F3 cells, cell growth inhibition
Description: To assess targeted degradation of ROS1 fusion proteins, we first established a mouse pro-B cell line Ba/F3 as a model expressing the CD74-ROS1 oncogene or CD74-ROS1 with clinically observed secondary/tertiary mutations. The Ba/F3 cell line is dependent on interleukin-3 for survival and proliferation. Upon transduction of oncogenic ROS1, Ba/F3 cells become independent of interleukin-3 but dependent on the transduced driver gene. The Ba/F3 models have been effectively employed in the discovery and preclinical development of next generation ROS1 inhibitors.[11],[14],[15] We have tested ROS1 inhibitors against these Ba/F3 cells to validate their sensitivity and resistance to ROS1 inhibition.
as §1, §2, §3

[9] = Metabolic stability in rat microsomes; format: in vitro ADME; details: 250 nM compound, NADPH, 37 °C
Experimental: (§4) Pooled human and rat microsomes were prepared and stored at −80 °C prior to use. A master-mix containing microsome, phosphate buffer, and test compound (9 series) solution was made as follows: (1) 3 μL of microsome (20 mg/mL) was diluted with mixed 30 μL of potassium phosphate buffer (pH 7.4; 10×) and 246 μL of water; (2) 3 μL of 25 μM drug solution was added to the microsome; (3) the master solution was prewarmed at 37 °C for 5 min. NADPH solution A (15 μL) and NADPH solution B (3 μL) from Promega were added to the above-mentioned master solution to initiate the reaction. The final concentration of 9 compounds in the reaction system was 250 nM. An aliquot of 20 μL was pipetted from the reaction solution and stopped by the addition of 180 μL of cold MeCN containing 25 ng of Tamoxifen-(N,N-dimethyl-13C2)-15N as an internal standard at the designated time points (0, 5, 15, 30, 45, and 60 min). The incubation solution was vortexed-mixed (800 rpm/10 min) and centrifuged at 3500 rpm for 10 min to precipitate proteins. The supernatant was collected and used for the LC/MS/MS analysis. The natural log of the remaining percentage of the test compound was plotted against time and the gradient of the line was determined.

ROS1 = ROS1 degradation in Ba/F3 cells (WES immunoblotting); format: cell-based; details: for DC50: concentration needed to reduce ROS1 protein by 50%, Ba/F3 cells; for Dmax (%) (ROS1): maximal degradation of ROS1 in Ba/F3 cells
Procedure, shortened: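 ROS1 and phospho-ROS1 (Tyr2274/2334) in Ba/F3 lysates quantified by capillary immunoassay (WES) with chemiluminescent detection, duplicate experiments. Levels expressed as AUC of the chemiluminescence peak.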

Log P measurement = format: physicochemical
Description: An important physicochemical property for a PROTAC molecule is its lipophilicity that largely dictates its pharmaceutical performance such as absorption, permeability, and distribution.

[10] = system: Ba/F3 CD74-ROS1 non mutant; test: Antiproliferation assay (Alamar Blue, 72 h); format: cell-based, mouse; details: Ba/F3 cells, cell growth inhibition
Ba/F3 ROS1-G2032R = test: Antiproliferation assay; format: cell-based, mouse; details: Ba/F3 cells, cell growth inhibition, 72 h
[11] = Pharmacokinetics study in Sprague–Dawley rats; format: in vivo; details: rat
[12] = Metabolic stability in human microsomes; format: in vitro ADME; details: 250 nM compound, NADPH, 37 °C
Experimental: as §4

[13] = Pharmacokinetics study in Sprague–Dawley rats; format: in vivo; details: rat; remark: listed apart in the source
Experimental: Four to 6 weeks old Sprague–Dawley rats [Crl: CD (SD)] (SPF/VAF) were purchased from Charles River (Wilmington MA). Animals were quarantined/acclimated for 2–6 weeks prior to dose initiation. Sprague–Dawley rats were given oral administration of test compounds (20% PG, 5% Solutol, and 75% of 20% HP-β-CD in water) at different dose levels. After treatment with the compounds, whole blood was collected from each study animal by puncture of the tail vein (0.4 mL of whole blood from rats) into tubes containing K2EDTA at each time point. The plasma samples were divided into 2 aliquots (approximately equal in volume) and stored frozen at −75 ± 15 °C within 2 h of the collection until analysis.
The stock solution of the test compound (0.01 M) in DMSO was prepared and stored at −20 ± 5 °C. The desired serial concentrations of working reference analyte solutions were achieved by diluting a stock analyte solution with 50% acetonitrile (0.1% formic acid) in water solution. The bioanalytical LC–MS/MS method was developed for quantitative determination of each test compound in Sprague–Dawley rat plasma with acceptable selectivity, sensitivity, calibration curve, precision, and accuracy. The analytical method is applicable for the determination of test compounds in Sprague–Dawley rat plasma with a lower limit of quantification of 10.0 ng/mL and an upper limit of quantification of 5000 ng/mL. Five microliters of diluted supernatant was injected into the LC–MS/MS system (TSQ Quantis) and a SynergiTM 4 μm Fusion-RP 80 Å (50 × 2 mm) column using gradient elution and a Triple Quad mass spectrometer) for quantitative analysis. The mobile phases used were 0.1% formic acid in deionized water and 0.1% formic acid in acetonitrile. The pharmacokinetic parameters T1/2 (the biological half-life), Cmax (maximal concentration), Tmax (time at which Cmax is observed), and AUC (area under the plasma concentration–time curve) were calculated from the plasma concentration versus time data using WinNonlin (PhoenixTM, version 8.1, Mountain View, CA, USA).

[14] = Sprague-Dawley [Crl: CD (SD)], plasma, 10 mg/kg po

IC50 [1]: 0.4 ± 0.2 nM
IC50 [2]: 25 ± 6.8 nM
IC50 [3]: > 2000 nM
IC50 [4]: 3.5 ± 0.6 nM
IC50 (Ba/F3 ROS1 (CD74) G2032R): 23.5 ± 3.8 nM
IC50 [5]: > 2000 nM
IC50 [6]: 181 ± 22.5 nM
IC50 [7]: > 2000 nM
IC50 [8]: 31.4 ± 7.3 nM
IC50 (Ba/F3 ROS1 (CD74) L2086F): 588 ± 76 nM
IC50 (Ba/F3 ROS1 L2086F): > 2000 nM
SMILES: C[C@H]1CNC(=O)c2cnn3ccc(nc23)N[C@H](C)c2cc(F)ccc2O1 [repotrectinib]

metabolic stability in rat microsomes Clint [9]: 13.8 µL/min/mg
metabolic stability in rat microsomes T1/2 [9]: 1.675 h
DC50 (ROS1): 10 nM
log P (Log P measurement): 2.84
IC50 [10]: 13 ± 2 nM
IC50 (Ba/F3 ROS1-G2032R): 153 ± 20 nM
AUC (iv) ([11]; 2 mg/kg iv): 50,451 h·ng/mL
metabolic stability in human microsomes Clint [12]: 119.5 µL/min/mg
metabolic stability in human microsomes T1/2 [12]: 0.483 h
AUC (po) ([13]; 10 mg/kg po): 41,622 h·ng/mL
Cmax ([13]; 10 mg/kg po): 4582 ng/mL
T1/2 ([13]; 10 mg/kg po): 4.11 h
Tmax ([13]; 10 mg/kg po): 3 h
% F ([13]; 10 mg/kg po vs 2 mg/kg iv): 16.5%
SMILES: COc1cc(N2CCN(CC3CN(c4ccc5c(c4)C(=O)N(C4CCC(=O)NC4=O)C5=O)C3)CC2)ccc1Nc1ncc(Cl)c(Nc2ccccc2P(C)(C)=O)n1 (stereo not drawn) [9b, 5-(3-((4-(4-((5-Chloro-4-((2-(dimethylphosphoryl)phenyl)amino)pyrimidin-2-yl)amino)-3-methoxyphenyl)piperazin-1-yl)methyl)azetidin-1-yl)-2-(2,6-dioxopiperidin-3-yl)isoindoline-1,3-dione]
Dmax (%) (ROS1) (ROS1): 96%

microsomal CLint at 1 h, 0.25 µM ([9]; rat, pooled rat microsomes, pH 7.4): 8.8 µL/min/mg
half-life at 1 h, 0.25 µM ([9]; rat, pooled rat microsomes, pH 7.4, read-out: metabolic stability in rat microsomes T1/2): 2.62 h
DC50 (ROS1): 13 nM
logP (Log P measurement): 2.88
IC50 [10]: 11 ± 2 nM
IC50 ([10]; Mus musculus, BaF3, 72 h): 11.2 nM
IC50 (Ba/F3 ROS1-G2032R; Mus musculus, BaF3): 27 ± 10 nM
AUC (iv) ([11]; 1 mg/kg iv): 3093 ng·h/mL
microsomal CLint at 1 h, 0.25 µM ([12]; human, pooled human microsomes, pH 7.4): 63.4 µL/min/mg
half-life at 1 h, 0.25 µM ([12]; human, pooled human microsomes, pH 7.4, read-out: metabolic stability in human microsomes T1/2): 0.917 h
Cmax at 24 h [13, 14]: 284 ng/mL
half-life [13, 14]: 8.32 h
bioavailability ([13]; Sprague-Dawley [Crl: CD (SD)], plasma, 10 mg/kg po vs 1 mg/kg iv): 9.8%
AUC ([13]; Sprague-Dawley [Crl: CD (SD)], plasma, 10 mg/kg po, read-out: AUC (po)): 3030 ng·h/mL
Tmax ([13]; Sprague-Dawley [Crl: CD (SD)], plasma, 10 mg/kg po, read-out: Tmax): 2 h
SMILES: COc1cc(N2CCC(N3CCN(CC4CCN(c5ccc6c(c5)C(=O)N(C5CCC(=O)NC5=O)C6=O)CC4)CC3)CC2)ccc1Nc1ncc(Cl)c(Nc2ccccc2P(C)(C)=O)n1 (stereo not drawn) [9f, 5-(4-((4-(1-(4-((5-Chloro-4-((2-(dimethylphosphoryl)phenyl)amino)pyrimidin-2-yl)amino)-3-methoxyphenyl)piperidin-4-yl)piperazin-1-yl)methyl)piperidin-1-yl)-2-(2,6-dioxopiperidin-3-yl)isoindoline-1,3-dione]
Dmax (%) (ROS1) (ROS1): 99%
